Measurements: PMC8621172, “Manipulating Estrogenic/Anti-Estrogenic Activity of Triphenylethylenes towards Development of Novel Anti-Neoplastic SERMs” (International Journal of Molecular Sciences, 2021)
Entries after “also recorded” stand apart in the source; their conditions may differ.

Experiments:
ovariectomized rats = experiment: Uterotrophic assay in ovariectomized rats; format: in vivo, rat; conditions: for uterotrophic effect (in words): compared to TAM; for Relative uterus wet weight: s.c. 10 mg/kg/d BW for three days
Excerpt: Compounds showing appreciable estrogenic activity in the YES assay and that were able to inhibit the growth of MCF-7 cancer cell lines yet with low estrogenic activity on Ishikawa endometrial adenocarcinoma cells might serve as potential ideal SERMS. Compounds 12 and 19 were therefore selected for the in vivo experiments to assess their estrogenic properties in an uterotrophic assay in an ovariectomized rat model. The in vivo uterotrophic rat assay is the gold standard assay to test for the estrogenic effect of compounds; the assay uses adult ovariectomized (OVX) female rats where there is no significant source of endogenous estrogens. Compounds that have estrogenic effects cause uterotrophic response due to the imbibition of water and growth of the uterine cells. Statistically significant uterine weight increases compared to controls provide a positive result. Adopting both in vivo and in vitro assays was inevitable due to the limitations of each assay. The cell lines are not properly able to recapitulate the in vivo environment of the uterus within the body. On the other hand, the rat uterotrophic assay merely considers the uterine weight gain as an endpoint of estrogenicity without taking into account all factors that play a role in exerting an estrogenic effect on the organ and body.
The most common short-term in vivo assay for estrogenicity/anti-estrogenicity is the uterotrophic assay, suitable for screening ERα agonists and antagonists. The primary endpoint is the uterine wet weight (UWW). An increase in UWW indicates an estrogenic activity of the test compound. Compounds 12 and 19 were screened using the in vivo uterotrophic assay.
The most common short-term in vivo assay for (anti)-estrogenicity is the uterine growth test, suitable for screening ERα agonists and antagonists. The primary endpoint is the uterine wet weight (UWW). An increase in UWW indicates an estrogenic activity of the test compound [43]. Sprague Dawley female rats (170–200 g) were obtained from the animal colony of the National Institute of Research (Cairo, Egypt). The rats were housed in a temperature-controlled room (23–24 °C) with a 12 h light:dark cycle and with free access to food and water. They were allowed to acclimatize to the animal house of the German University in Cairo for at least 1 week before initiating the experiments. All efforts were made to minimize animal discomfort and suffering. Animals were ovariectomized. After 14 days of endogenous hormonal decline, the animals were subcutaneously treated for three days with respective compounds. The animals were randomly allocated to treatment and vehicle groups (n = 6). […] The uterus wet weight was determined.

NSCLC cell lines = experiment: NCI five-dose assay, NSCLC subpanel; format: cell-based; conditions: Homo sapiens
Procedure: (§1) All compounds were subjected to the NCI in vitro disease-oriented human cells screening panel assay. The human tumor cell lines of the cancer-screening panel are grown in RPMI 1640 medium containing 5% fetal bovine serum and 2 mM L-glutamine. For a typical screening experiment, cells are inoculated into 96-well microtiter plates in 100 μL at plating densities ranging from 5000 to 40,000 cells/well depending on the doubling time of individual cell lines. After cell inoculation, the microtiter plates are incubated at 37 °C, 5% CO2, 95% air, and 100% relative humidity for 24 h prior to the addition of experimental drugs. After 24 h, two plates of each cell line are fixed in situ with TCA to represent a measurement of the cell population for each cell line at the time of drug addition. Experimental drugs are solubilized in dimethyl sulfoxide at 400-fold the desired final maximum test concentration and stored frozen prior to use. At the time of drug addition, an aliquot of frozen concentrate is thawed and diluted to twice the desired final maximum test concentration with complete medium containing 50 μg/mL gentamicin. […] Bound stain is subsequently solubilized with a 10 mM trizma base, and the absorbance is read on an automated plate reader at a wavelength of 515 nm. […] Three response parameters (GI50, TGI, and LC50) were calculated for each cell line.

renal cell lines = experiment: NCI five-dose assay, renal subpanel; format: cell-based; conditions: Homo sapiens
Procedure: as §1

prostate cell lines = experiment: NCI five-dose assay, prostate subpanel; format: cell-based; conditions: Homo sapiens
Procedure: as §1

MDA-MB-468 = experiment: NCI five-dose assay, TNBC cell line MDA-MB-468; format: cell-based, human; conditions: MDA-MB-468, five-dose assay
Procedure: as §1

Row | SMILES | uterotrophic effect (in words) (ovariectomized rats) | Relative uterus wet weight (ovariectomized rats) | GI50 (NSCLC cell lines) | GI50 (renal cell lines) | GI50 (prostate cell lines) | anti-proliferative activity compared to TAM (MDA-MB-468)
1 | COc1ccc(C(C)=C(c2ccc(Cl)cc2)c2ccc(OCCN3CCCCC3)cc2)cc1 [Compound 12, E/Z-1-(2-{4-[1-(4-Chloro-phenyl)-2-(4-methoxy-phenyl)-propenyl]-phenoxy}-ethyl)-piperidine] | no uterotrophic effect; also recorded: less increase in UWW | 1.23 ± 0.18 g/kg BW | – | – | – | –
2 | COc1ccc(C(C)=C(c2ccc(Cl)cc2)c2ccc(OCCN3CCCCCC3)cc2)cc1F [Compound 19, E/Z-1-(2-{4-[1-(4-Chlorophenyl)-2-(3-fluoro-4-methoxyphenyl)-propenyl]-phenoxy}-ethyl)-azepane] | less increase in UWW | 1.15 ± 0.18 g/kg BW | – | – | – | –
3 | CCN(CC)CCOc1ccc(C(=C(C)c2ccc(F)c(OC)c2)c2ccc(Cl)cc2)cc1 [Compound 28, E/Z-(2-{4-[1-(4-Chlorophenyl)-2-(4-fluoro-3-methoxyphenyl)-propenyl]-phenoxy}-ethyl)-diethyl-amine] | – | – | 2.34 µM | 2.4 µM | 2.31 µM | equipotent to TAM
